According to patent publication US20210023029A1, “EDASALONEXENT DOSING REGIMEN FOR TREATING MUSCULAR DYSTROPHY” (Catabasis Pharmaceuticals, Inc., priority 2017, published 2021):

What was measured:
mdx mice [1] = experiment: Quadriceps muscle inflammation and fibrosis in young mdx mice treated four weeks (H&E and picrosirius red staining); assay type: in vivo
Procedure: Young mdx mice were treated for four weeks with varying dosing regimens of edasalonexent. The mdx mouse is a useful and generally accepted animal model for studying Duchenne muscular dystrophy (DMD) (Mann et al. (2001) PROC. NATL. ACAD. SCI. 98(1):42-7). mdx mice are deficient in expression of full-length dystrophin due to a genetic mutation within the dystrophin gene.
Mice were administered edasalonexent in their diet, and/or by oral gavage. Specifically, mice were administered 1% edasalonexent in their diet, 450 mg/kg/day delivered orally as single daily dose, 450 mg/kg/day delivered orally as three equally divided doses, and/or 600 mg/kg/day delivered orally as two 150 mg/kg/doses and one 300 mg/kg/dose. For dosing regimens with three daily doses, doses were delivered at 7:00 am, noon and 5:00 pm.
The dosing regimens for each treatment group are depicted in TABLE 4. Each treatment group included 10-11 mice.
Animals were treated for four weeks, sacrificed, and tissues were collected for histological analysis. For assessment of inflammation and fibrosis, quadriceps muscles were processed for hematoxylin and eosin (H&E) and picrosirius red (collagen) histochemical staining. From each animal, 2-4 complete transverse sections were digitally analyzed using ImageJ, with the hematoxylin-stained nuclear area determined as a measure of inflammatory infiltration, and the picrosirius red-stained area determined as a measure of fibrosis.

[2] = MoveDMD trial: systemic exposure and Ctrough in DMD patients; assay type: in vivo, human; details: for daily exposure level versus level effective in inhibiting NF-κB in the adult study: boys with DMD
Procedure: The MoveDMD trial (see FIG. 10) was designed to evaluate efficacy, safety/tolerability, pharmacokinetics (PK), pharmacodynamics (PD), and dose response of edasalonexent. The first phase portion of the MoveDMD trial was a 1-week study to evaluate the safety, PK, and PD at 33 and 67 mg/kg/day, given in 2 divided doses, and 100 mg/kg/day given in 3 divided doses.
The second phase and the open-label extension (OLE) portions of the MoveDMD trial enrolled boys ages 4 through 7 with DMD. Phase 2 was a 12-week placebo-controlled study with two cohorts given 33 mg/kg twice daily (BID; 67 mg/kg/day; n=10) or 33 mg/kg three times daily (TID; 100 mg/kg/day; n=10), and a placebo cohort (n=10). Patients in the OLE continued with either dose regimen of edasalonexent.
The ratios of all 24 transcripts within a patient were also averaged, and are shown in FIG. 13 using symbols which represent this average from each individual patient. This average was graphed against the average edasalonexent Ctrough values within each dose cohort (shown on the x-axis in ng/ml).

mdx mice [3] = details: cited from earlier work
boys with DMD = experiment: MoveDMD trial: MRI-T2 and MR spectroscopy fat fraction of leg muscles; assay type: in vivo, human
From the text: The MR transverse relaxation time constant assessed by MRI (MRI-T2; also referred to as bulk T2) is sensitive to several pathophysiological features of disease pathology in DMD, including muscle damage, inflammation, and fat infiltration and provides a method for monitoring disease pathology over a wide age range. Furthermore, the proportion of fat infiltration in the muscle (fat fraction), measured using the gold standard, proton MRS (^1H-MRS), or a 3-point Dixon imaging technique, is associated with disease progression and correlates with performance on functional tests. (Willcocks et al., (2016), ANN. NEUROL., 79(4):535-47; Barnard et al., (2018), PLoS ONE, 13(3):E0194283). These are non-invasive measures of disease progression in DMD that are elevated and increase with age; changes in these measures strongly correlate with changes in function and predict future loss of functional milestones. […] The MRI-T2 value was a composite of 5 lower leg muscles. Stabilization of MRI-T2 values is consistent with the concomitant slowing of DMD disease progression observed through the functional assessments discussed previously.

NF-κB = details: cited from earlier work
[4] = group 2, 1% edasalonexent in diet
[5] = group 4, oral QD 450 mg/kg/dose
[6] = group 7, oral TID 150/150/300 mg/kg/dose = 600 mg/kg/day
[7] = after 48 weeks receiving 100 mg/kg/day

In the case of `CC/C=C\C/C=C\C/C=C\C/C=C\C/C=C\C/C=C\CCC(=O)NCCNC(=O)c1ccccc1O` [edasalonexent, N-(2-[(4Z,7Z,10Z,13Z,16Z,19Z)-docosa-4,7,10,13,16,19-hexaenamido]ethyl)-2-hydroxybenzamide], the “quadriceps muscle fibrosis (picrosirius red-stained area)” value (shortened to “quadriceps muscle fibrosis”) (mdx mice [1]; [4]) is reported as “reduced”, the “quadriceps muscle inflammation (hematoxylin-stained nuclear area)” value (from here on “quadriceps muscle inflammation”) (mdx mice [1]; [4]) is reported as “reduced” and the “quadriceps muscle fibrosis” value (mdx mice [1]; [5]) is reported as “did not cause a significant reduction”. The “quadriceps muscle inflammation” value (mdx mice [1]; [5]) was “did not cause a significant reduction”, the “quadriceps muscle fibrosis” value (mdx mice [1]; [6]) was “further drove efficacy” and the “quadriceps muscle inflammation” value (mdx mice [1]; [6]) was “further drove efficacy”. For the same compound, the “daily exposure level versus level effective in inhibiting NF-κB in the adult study” value ([2]; 67 mg/kg/day (33 mg/kg twice daily)) was “comparable”, the “daily exposure level versus level effective in inhibiting NF-κB in the adult study” value ([2]; 100 mg/kg/day (33 mg/kg three times daily)) was “comparable” and the “mean Ctrough level” value ([2]; 100 mg/kg/day compared to 33 and 67 mg/kg/day, after one week) was “highest Ctrough level”. For the same compound, the “diaphragm function and cumulative run distance” value (mdx mice [3]; long-term studies on mdx mice (Milne et al. 2014)) was “improved diaphragm function and increased cumulative run distance”, the “muscle regeneration, degeneration, inflammation and function” value (mdx mice [3]; mdx mice (Milne et al. 2014)) was “enhance muscle regeneration, reduce muscle degeneration and inflammation, and preserve muscle function” and the “annualized rate of change of MRI-T2 values (composite of 5 lower leg muscles)” value (boys with DMD; 100 mg/kg/day treatment period (60 weeks) versus off-treatment period (36 weeks)) was “significantly improved”. For the same compound, the “change in fat fraction, soleus (MR spectroscopy)” value (boys with DMD; [7]) was 0.85%, the “change in fat fraction, vastus lateralis (MR spectroscopy)” value (boys with DMD; [7]) was 5.9% and the “expression of NF-κB driven genes in whole blood” value (NF-κB; adult study, dose of approximately 100 mg/kg/day) was “changes in expression of NF-κB driven genes were observed”. The “levels of the p65 subunit of NF-κB” value (NF-κB; healthy adult humans, compared to placebo or salicylate and omega-3 DHA as separate molecules) was “lowers levels of the p65 subunit of NF-κB”, the “biomarkers of inflammation in whole blood” value (NF-κB; humans) was “decrease of biomarkers of inflammation” and the “activated NF-κB pathways” value (NF-κB; phase 1 clinical program in adults (Donovan et al. 2017)) was “inhibited activated NF-κB pathways”. For the same compound, the safety and tolerability (NF-κB; phase 1 clinical program, three placebo-controlled studies in adults (Donovan et al. 2017)) was “safe and well-tolerated”.
